Paper PMC6254361, “The properties of Msh2–Msh6 ATP binding mutants suggest a signal amplification mechanism in DNA mismatch repair” (The Journal of Biological Chemistry, 2018)

Target: T1, Msh2–Msh6 (Saccharomyces cerevisiae, UniProt P25847+Q03834, P25847:K694R)
T1 sequence (P25847 1-964 K694R): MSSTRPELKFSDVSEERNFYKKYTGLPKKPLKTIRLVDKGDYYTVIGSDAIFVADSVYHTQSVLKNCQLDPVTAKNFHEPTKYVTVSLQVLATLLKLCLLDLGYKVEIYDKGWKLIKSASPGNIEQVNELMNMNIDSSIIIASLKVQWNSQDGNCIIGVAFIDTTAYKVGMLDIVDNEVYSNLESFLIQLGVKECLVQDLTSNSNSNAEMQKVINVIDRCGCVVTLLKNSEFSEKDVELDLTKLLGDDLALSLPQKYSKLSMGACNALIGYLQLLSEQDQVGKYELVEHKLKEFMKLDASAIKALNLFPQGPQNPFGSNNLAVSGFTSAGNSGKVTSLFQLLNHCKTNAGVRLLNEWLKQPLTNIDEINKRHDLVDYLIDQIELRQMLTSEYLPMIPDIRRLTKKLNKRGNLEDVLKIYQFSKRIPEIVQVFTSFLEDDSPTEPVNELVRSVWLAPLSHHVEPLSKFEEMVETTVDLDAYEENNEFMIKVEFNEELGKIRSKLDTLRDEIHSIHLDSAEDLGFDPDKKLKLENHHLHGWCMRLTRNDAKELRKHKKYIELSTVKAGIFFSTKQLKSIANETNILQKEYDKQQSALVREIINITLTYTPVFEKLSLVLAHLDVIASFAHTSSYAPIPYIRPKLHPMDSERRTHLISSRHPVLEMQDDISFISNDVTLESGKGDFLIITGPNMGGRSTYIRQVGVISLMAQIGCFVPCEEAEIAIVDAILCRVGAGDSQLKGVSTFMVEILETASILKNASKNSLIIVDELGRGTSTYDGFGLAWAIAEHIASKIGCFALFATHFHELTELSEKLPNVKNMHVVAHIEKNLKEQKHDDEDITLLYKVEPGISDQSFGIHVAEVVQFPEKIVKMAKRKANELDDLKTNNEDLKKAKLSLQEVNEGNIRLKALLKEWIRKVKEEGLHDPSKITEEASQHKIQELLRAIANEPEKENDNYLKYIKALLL
T1 sequence (Q03834 1-1242): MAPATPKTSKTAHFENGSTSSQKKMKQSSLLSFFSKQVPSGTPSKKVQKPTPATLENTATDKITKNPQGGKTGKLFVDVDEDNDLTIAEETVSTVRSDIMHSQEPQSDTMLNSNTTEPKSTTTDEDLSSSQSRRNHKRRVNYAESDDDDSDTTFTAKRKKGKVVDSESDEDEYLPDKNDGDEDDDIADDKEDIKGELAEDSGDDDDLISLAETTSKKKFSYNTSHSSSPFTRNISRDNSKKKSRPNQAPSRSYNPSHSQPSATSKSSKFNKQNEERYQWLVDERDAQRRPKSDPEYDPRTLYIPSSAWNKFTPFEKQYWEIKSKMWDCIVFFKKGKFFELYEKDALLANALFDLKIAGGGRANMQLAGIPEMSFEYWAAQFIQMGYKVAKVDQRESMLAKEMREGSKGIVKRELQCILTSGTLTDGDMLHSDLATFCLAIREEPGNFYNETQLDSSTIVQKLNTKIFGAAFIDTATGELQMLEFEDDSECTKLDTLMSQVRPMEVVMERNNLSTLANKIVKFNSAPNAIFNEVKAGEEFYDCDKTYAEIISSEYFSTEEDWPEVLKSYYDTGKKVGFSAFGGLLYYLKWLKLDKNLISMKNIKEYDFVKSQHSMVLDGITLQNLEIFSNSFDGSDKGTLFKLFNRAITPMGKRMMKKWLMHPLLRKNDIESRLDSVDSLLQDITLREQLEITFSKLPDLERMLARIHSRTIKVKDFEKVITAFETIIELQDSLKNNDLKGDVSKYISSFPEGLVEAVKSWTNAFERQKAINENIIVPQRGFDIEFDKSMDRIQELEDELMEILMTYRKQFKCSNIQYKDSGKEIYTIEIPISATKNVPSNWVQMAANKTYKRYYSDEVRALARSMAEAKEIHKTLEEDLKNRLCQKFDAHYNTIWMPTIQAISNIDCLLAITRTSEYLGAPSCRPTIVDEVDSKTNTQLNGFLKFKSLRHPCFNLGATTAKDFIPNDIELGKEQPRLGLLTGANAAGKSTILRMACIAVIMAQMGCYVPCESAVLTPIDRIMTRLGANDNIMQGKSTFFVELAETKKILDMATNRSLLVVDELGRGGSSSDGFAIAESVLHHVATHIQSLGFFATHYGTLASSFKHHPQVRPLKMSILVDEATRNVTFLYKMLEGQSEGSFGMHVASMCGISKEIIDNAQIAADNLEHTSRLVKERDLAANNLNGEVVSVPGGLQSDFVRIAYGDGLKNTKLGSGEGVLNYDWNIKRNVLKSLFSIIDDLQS
Experiment: UV cross-linking of [γ-32P]ATP, SDS-PAGE, phosphorimaging
Assay type: binding
Settings: labelled compound; no Mg2+, EDTA, pH 8, on ice; Msh2 site at 60 μM ATP, Msh6 site at 1 μM ATP

For `Nc1ncnc2c1ncn2[C@@H]1O[C@H](COP(=O)(O)OP(=O)(O)OP(=O)(O)O)[C@@H](O)[C@H]1O` [ATP], which “relative ATP binding” value is on record?
Its value is “Msh2(K694A)–Msh6 and Msh2(K694R)–Msh6 mutant complexes were defective for ATP binding to both”.
